Measurements as given in ChEMBL document CHEMBL1128084, “A general method for synthesis of ether phospholipids with -linolenic acid and their properties” (Bioorg Med Chem Lett, 1995).

Assay: Inhibiting aggregation of rabbit platelet induced by platelet-activating factor
Details: Oryctolagus cuniculus; concentration not given here

inhibition: 4.3%
Compound: CC/C=C/C/C=C/C/C=C/CCCCCCCCC(=O)O[C@@H](COCCCCCCCCCCCCCCCC)COP(=O)([O-])OCC[N+](C)(C)C
